Test results taken from ChEMBL document CHEMBL1201862, “PubChem BioAssay data set” (2004).
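Cells were grown in 96-well plates and exposed to each compound for 48 hours at five concentrations; endpoints were interpolated linearly between bracketing concentrations, or set to the highest concentration if not reached. The concentration for 50% growth inhibition is given as GI50.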 Calls of active or inactive are those of the source. Cut-off read from the data, not from the text of the source: active = GI50 up to about 1.1 µM and inactive = higher.

Experiments:
Assay in all cases: NCI tumour cell line growth inhibition, 48 h
[1] = tested on: TK-10
[2] = tested on: SNB-75
[3] = tested on: PC-3
[4] = tested on: SK-MEL-28
[5] = tested on: SW-620
[6] = tested on: OVCAR-8
[7] = tested on: SK-MEL-5
[8] = tested on: HOP-92
[9] = tested on: CCRF-CEM
[10] = tested on: SR
[11] = tested on: HL-60
[12] = tested on: M14
[13] = tested on: UO-31
[14] = tested on: EKVX
[15] = tested on: MDA-MB-435
[16] = tested on: HT-29
[17] = tested on: HCC 2998
[18] = tested on: DU-145
[19] = tested on: NCI/ADR-RES
[20] = tested on: RXF 393
[21] = tested on: NCI-H23
[22] = tested on: T47D
[23] = tested on: U-251
[24] = tested on: HOP-62
[25] = tested on: BT-549
[26] = tested on: NCI-H522
[27] = tested on: HCT-116
[28] = tested on: A498
[29] = tested on: LOX IMVI
[30] = tested on: SN12C
[31] = tested on: Malme-3M
[32] = tested on: SF-539
[33] = tested on: NCI-H460
[34] = tested on: SK-OV-3
[35] = tested on: SF-295
[36] = tested on: SF-268
[37] = tested on: COLO 205
[38] = tested on: UACC-257
[39] = tested on: IGROV-1
[40] = tested on: KM12
[41] = tested on: MDA-N
[42] = tested on: MCF7
[43] = tested on: UACC-62
[44] = tested on: Hs-578T
[45] = tested on: OVCAR-3
[46] = tested on: OVCAR-5
[47] = tested on: MDA-MB-231
[48] = tested on: 786-0
[49] = tested on: CAKI-1
[50] = tested on: ACHN
[51] = tested on: RPMI-8226
[52] = tested on: MOLT-4
[53] = tested on: K562
[54] = tested on: SNB-19
[55] = tested on: OVCAR-4
[56] = tested on: HCT-15
[57] = tested on: SK-MEL-2
[58] = tested on: A549

Compound: CC(=O)n1nc(-c2ccccc2)n(/N=C/c2ccc([N+](=O)[O-])o2)c1=O
- GI50 [1]: 11.5 µM (inactive)
- GI50 [2]: 10.2 µM (inactive)
- GI50 [3]: 13.7 µM (inactive)
- GI50 [4]: 9.84 µM (inactive)
- GI50 [5]: 5.87 µM (inactive)
- GI50 [6]: 9.93 µM (inactive)
- GI50 [7]: 7.13 µM (inactive)
- GI50 [8]: 9.86 µM (inactive)
- GI50 [9]: 1.6 µM (inactive)
- GI50 [10]: 3.08 µM (inactive)
- GI50 [11]: 3.59 µM (inactive)
- GI50 [12]: 1.94 µM (inactive)
- GI50 [13]: 1.77 µM (inactive)
- GI50 [14]: 0.933 µM (active)
- GI50 [15]: 6.5 µM (inactive)
- GI50 [16]: 3.37 µM (inactive)
- GI50 [17]: 4.53 µM (inactive)
- GI50 [18]: 7.91 µM (inactive)
- GI50 [19]: 9.73 µM (inactive)
- GI50 [20]: 5.93 µM (inactive)
- GI50 [21]: 7.64 µM (inactive)
- GI50 [22]: 19.9 µM (inactive)
- GI50 [23]: 15.9 µM (inactive)
- GI50 [24]: 4.94 µM (inactive)
- GI50 [25]: 8.32 µM (inactive)
- GI50 [26]: 3.7 µM (inactive)
- GI50 [27]: 1.47 µM (inactive)
- GI50 [28]: 2.47 µM (inactive)
- GI50 [29]: 7.74 µM (inactive)
- GI50 [30]: 2.13 µM (inactive)
- GI50 [31]: 6.67 µM (inactive)
- GI50 [32]: 8.79 µM (inactive)
- GI50 [33]: 7.06 µM (inactive)
- GI50 [34]: 16.6 µM (inactive)
- GI50 [35]: 1.66 µM (inactive)
- GI50 [36]: 3.08 µM (inactive)
- GI50 [37]: 7.36 µM (inactive)
- GI50 [38]: 7.23 µM (inactive)
- GI50 [39]: 15.9 µM (inactive)
- GI50 [40]: 16.4 µM (inactive)
- GI50 [41]: 1.81 µM (inactive)
- GI50 [42]: 2.58 µM (inactive)
- GI50 [43]: 10.4 µM (inactive)
- GI50 [44]: 8.59 µM (inactive)
- GI50 [45]: 7.91 µM (inactive)
- GI50 [46]: 1.47 µM (inactive)
- GI50 [47]: 8.34 µM (inactive)
- GI50 [48]: 2.21 µM (inactive)
- GI50 [49]: 9.46 µM (inactive)
- GI50 [50]: 8.38 µM (inactive)
- GI50 [51]: 10 µM (inactive)
- GI50 [52]: 3.24 µM (inactive)
- GI50 [53]: 8.83 µM (inactive)
- GI50 [54]: 16.3 µM (inactive)
- GI50 [55]: 15.1 µM (inactive)
- GI50 [56]: 6.84 µM
- GI50 [57]: 6.97 µM (inactive)
- GI50 [58]: 7.21 µM (inactive)
